Measurements from PubChem BioAssay AID1919017 (Molecular Pharmacology Branch, DTP, NCI, 2023).
“And” between values parts separate entries of the source, which are not always exact repeats. Equal values may be shown once.

Tested on: SW1271 complex spheroids with HUVEC/MSC, growth, % test/control
Test: Anticancer human tumor SW1271 cell line growth inhibition [AhR];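 further: spheroids exposed to agents for 7 days before readout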
Details: for viability, T/C: stronger effect = lower value
Text: Multicellular complex tumor spheroid response to aryl hydrocarbon receptor antagonists in combination with a variety of drugs and investigational agents in selected tumor cell lines
The current study was undertaken to assess response to aryl hydrocarbon receptor antagonists in combination with standard-of-care drugs and investigational agents in solid tumor complex spheroid models. Complex spheroids include a stromal component modeled by human endothelial cells (HUVEC) and fibroblasts modeled by human mesenchymal stem cells (MSCs). The concentration ranges selected for each drug and investigational agent were based upon clinically achievable concentrations if the clinical Cmax of the agent was known.
Compounds. The drugs and investigational agents: BAY 2416964 (NSC825713), GNF351 (NSC835774), CH-223191 (NSC835775), CPI-455 (NSC825282), aza-TdCyd (NSC777586), decitabine (NSC127716), belinostat (NSC758774), entinostat (NSC756642), pevonedistat (NSC761192), tazemetostat (NSC777109), talazoparib (NSC765396), olaparib (NSC753686), selinexor (NSC780203), nedisertib (M3814, NSC802822), bortezomib (NSC756655), venetoclax (NSC766270), doxorubicin (NSC123127), elimusertib (BAY189344, NSC800525), ceralasertib (AZD6738, NSC777638), TAK-243 (NSC785004), alisertib (NSC759677), etoposide (NSC141540), topotecan (NSC609699), eribulin (NSC707389), gemcitabine (NSC613327), carboplatin (NSC241240), cisplatin (NSC119875), and SN-38 (NSC673596) were obtained from the National Cancer Institute (NCI) Developmental Therapeutics Program Chemical Repository (32). The FDA-approved anticancer drug set is available from the Developmental Therapeutics Program at https://dtp.cancer.gov/organization/dscb/obtaining/available plates.htm. […] The stock solutions were prepared in dimethyl sulfoxide (DMSO, Sigma-Aldrich, St. Louis, MO, cat. D2650), except for the platinum compounds which were prepared in saline (Quality Biological, Gaithersburg, MD, cat. 114-055-101), at 800-fold the tested concentration and stored at -70 degrees C prior to their use. All drugs and investigational agents were tested over a range starting from a high concentration at or near the clinical Cmax and decreasing in half-log increments. If the clinical Cmax for an agent had not been determined, the highest concentration tested was 10 microM (Table 1).
Cell Culture. All cells were maintained in an incubator at 37 degrees C and 5% CO2 with 95% humidity. The PDC lines were cultured according to standard operating procedures established by the NCI PDMR (https://pdmr.cancer.gov). Briefly, all PDCs were thawed and cultured in Matrigel-coated flasks prepared with a working solution of 1X Ham's F-12 nutrient mix, without supplementation (Invitrogen, Waltham, MA, cat. 11765054), 100 U/mL penicillin-streptomycin (Invitrogen, cat. 15140122), and 2.5% Matrigel (Corning Inc., Corning, NY, cat. 354248) for the first three passages. All PDCs were cultured in complete DMEM/F-12 media containing advanced DMEM/F-12 (Invitrogen, cat. 12634028), 4.9% defined fetal bovine serum, heat inactivated (HyClone Laboratories Inc., Logan, UT, cat. SH30070.03HI), 389 ng/mL hydrocortisone (Sigma-Aldrich, cat. H4001), 9.7 ng/mL human EGF recombinant protein (Invitrogen, cat. PHG0313), 23.4 microg/mL adenine (Sigma-Aldrich, cat. A2786), 97.3 U/mL penicillin-streptomycin (Invitrogen, cat. 15140122), 1.9 mM L-glutamine (Invitrogen, cat. 25030081), and 9.7 microM Y-27632 dihydrochloride (Tocris Bioscience, Bristol, United Kingdom, cat. 1254). The PDCs were cultured in complete DMEM/F12 media without 10 microM Y-27632 dihydrochloride for at least two passages prior to the screen. The established cell lines NCI-H1341 and […] were cultured in DMEM/F-12, HEPES (Invitrogen, cat. 11330032), 5% defined fetal bovine serum (HyClone Laboratories Inc., cat. SH30070.03), ITS premix universal culture supplement [insulin (5 microg/mL), transferrin (5 microg/mL), and selenious acid (5 ng/mL)] […]

`CC(C)CC(NC(=O)C(Cc1ccccc1)NC(=O)c1cnccn1)B(O)O` (configuration not stated) was tested, and the viability, T/C (compound 0.000949 µM) was 97.1% and 109% and 95.8%, the viability, T/C (compound 0.003 µM) was 89.3% and 86% and 67.3% and the viability, T/C (compound 0.00949 µM) was 7.81% and 7.15% and 1.46%. For the same compound, the viability, T/C (compound 0.03 µM) was 0.75% and 0.78% and 0.59%, the viability, T/C (compound 0.0949 µM) was 0.47% and 0.58% and 0.43% and the viability, T/C (compound 0.3 µM) was 0.64% and 0.89% and 0.44%. For the same compound, the IC50 (curve of compound) was 0.00523 µM and 0.00507 µM and 0.00406 µM.
With `CC(C)c1c(-c2ccccc2)nc2c(C#N)c[nH]n2c1=O` the viability, T/C (compound 0.0316 µM) was 110% and 109% and 85.9%, the viability, T/C (compound 0.1 µM) was 81.4% and 104% and 86.4% and the viability, T/C (compound 0.316 µM) was 121% and 91.8% and 104%. The viability, T/C (compound 1 µM) was 101% and 92.5% and 93.3%, the viability, T/C (compound 3.16 µM) was 110% and 91.8% and 94% and the viability, T/C (compound 10 µM) was 107% and 91.7% and 85.8%. The IC50 (curve of compound) was > 10 µM.
In the case of `CC(CO)NC(=O)c1cc(-c2ccc(Cl)cc2)nn(-c2cnn(C)c2)c1=O` (configuration not stated), the viability, T/C (compound 0.1 µM) is reported as 94.2% [middle of 20 runs] and the IC50 (compound alone, run of 08/08/2022) is reported as > 10 µM.
With `CC1(C)CCC(CN2CCN(c3ccc(C(=O)NS(=O)(=O)c4ccc(NCC5CCOCC5)c([N+](=O)[O-])c4)c(Oc4cnc5[nH]ccc5c4)c3)CC2)=C(c2ccc(Cl)cc2)C1` the viability, T/C (compound 0.0316 µM) was 93.6% and 94.9% and 90.9%, the viability, T/C (compound 0.1 µM) was 107% and 101% and 97.1% and the viability, T/C (compound 0.316 µM) was 104% and 75% and 108%. The viability, T/C (compound 1 µM) was 92.9% and 102% and 94.2%, the viability, T/C (compound 3.16 µM) was 101% and 110% and 105% and the viability, T/C (compound 10 µM) was 88% and 72.9% and 74.4%. For the same compound, the IC50 (curve of compound) was > 10 µM.
For `CC1COCCN1c1cc(-c2ccnn2C)c2ccnc(-c3ccn[nH]3)c2n1` (configuration not stated), the viability, T/C (compound 0.00316 µM) was 95.8% and 99.2% and 91%, the viability, T/C (compound 0.01 µM) was 90.6% and 102% and 103% and the viability, T/C (compound 0.0316 µM) was 76.6% and 71.1% and 85.7%. For the same compound, the viability, T/C (compound 0.1 µM) was 58.4% and 65.3% and 70.1%, the viability, T/C (compound 0.316 µM) was 51.8% and 61.9% and 60.3% and the viability, T/C (compound 1 µM) was 43.8% and 46.2% and 45.5%. For the same compound, the IC50 (curve of compound) was 0.294 µM and > 1 µM and 0.712 µM.
For `CC1COCCN1c1cc(C2(S(C)(=N)=O)CC2)nc(-c2ccnc3[nH]ccc23)n1` (configuration not stated), the viability, T/C (compound 0.0316 µM) was 106% and 99.7% and 91.9%, the viability, T/C (compound 0.1 µM) was 85.4% and 106% and 103% and the viability, T/C (compound 0.316 µM) was 87.8% (2×) and 79.2%. The viability, T/C (compound 1 µM) was 77.5% and 84% and 73.8%, the viability, T/C (compound 3.16 µM) was 80.1% and 69.6% and 68.8% and the viability, T/C (compound 10 µM) was 59.5% and 70.1% and 51.9%. For the same compound, the IC50 (curve of compound) was > 10 µM.
